Reference: ChEMBL document CHEMBL5724914, “Linking interpersonal differences in gut microbiota composition and drug biotransformation activity” (2024)

experiment: (§1) The drug is tested on Z-006 corresponding to mouse gut metagenome with ENA study accession number: PRJEB37062 and ENA sample accession number: ERS12561806 for biotransformation under anaerobic condition. The drug concentrations were measured over 9 timepoints collected between 0 and 24 hours of incubation by liquid-chromatography-coupled mass spectrometry (LC–MS); settings: 2 µM
Further: call rule not given here.

Bacterial Biotransformation	Compound
Compound NOT metabolized	CC1=C(CC(=O)O)c2cc(F)ccc2/C1=C\c1ccc([S+](C)[O-])cc1 (stereo not given)
Compound NOT metabolized	N=C(N)NC(=O)Cc1c(Cl)cccc1Cl [GUANFACINE]
Compound metabolized	O=C(O)c1cc(/N=N/c2ccc(S(=O)(=O)Nc3ccccn3)cc2)ccc1O [SULFASALAZINE]
Compound metabolized	N#Cc1ccc2[nH]cc(CCCCN3CCN(c4ccc5oc(C(N)=O)cc5c4)CC3)c2c1 [VILAZODONE]

settings: human gut metagenome, 24 h, 2 µM

Bacterial Biotransformation	Compound
Compound metabolized	CC1=C(CC(=O)O)c2cc(F)ccc2/C1=C\c1ccc([S+](C)[O-])cc1 (stereo not given)
Compound NOT metabolized	N=C(N)NC(=O)Cc1c(Cl)cccc1Cl [GUANFACINE]
Compound metabolized	O=C(O)c1cc(/N=N/c2ccc(S(=O)(=O)Nc3ccccn3)cc2)ccc1O [SULFASALAZINE]

experiment: as §1, with “Z-010” for “Z-006”, “to” for “to mouse gut”, “ERS12561810” for “ERS12561806”; settings: 2 µM

Bacterial Biotransformation	Compound
Compound NOT metabolized	CC1=C(CC(=O)O)c2cc(F)ccc2/C1=C\c1ccc([S+](C)[O-])cc1 (stereo not given)
Compound NOT metabolized	N=C(N)NC(=O)Cc1c(Cl)cccc1Cl [GUANFACINE]
Compound metabolized	O=C(O)c1cc(/N=N/c2ccc(S(=O)(=O)Nc3ccccn3)cc2)ccc1O [SULFASALAZINE]
Compound metabolized	N#Cc1ccc2[nH]cc(CCCCN3CCN(c4ccc5oc(C(N)=O)cc5c4)CC3)c2c1 [VILAZODONE]

experiment: as §1, with “Z-018” for “Z-006”, “pig” for “mouse”, “ERS12561817” for “ERS12561806”; settings: 2 µM

Bacterial Biotransformation	Compound
Compound metabolized	CC1=C(CC(=O)O)c2cc(F)ccc2/C1=C\c1ccc([S+](C)[O-])cc1 (stereo not given)
Compound metabolized	O=C(O)c1cc(/N=N/c2ccc(S(=O)(=O)Nc3ccccn3)cc2)ccc1O [SULFASALAZINE]
Compound NOT metabolized	N#Cc1ccc2[nH]cc(CCCCN3CCN(c4ccc5oc(C(N)=O)cc5c4)CC3)c2c1 [VILAZODONE]

settings: human gut metagenome, 24 h, 2 µM; remark: another data set of the same source

Bacterial Biotransformation	Compound
Compound metabolized	CC1=C(CC(=O)O)c2cc(F)ccc2/C1=C\c1ccc([S+](C)[O-])cc1 (stereo not given)
Compound NOT metabolized	N=C(N)NC(=O)Cc1c(Cl)cccc1Cl [GUANFACINE]
Compound metabolized	O=C(O)c1cc(/N=N/c2ccc(S(=O)(=O)Nc3ccccn3)cc2)ccc1O [SULFASALAZINE]
Compound metabolized	N#Cc1ccc2[nH]cc(CCCCN3CCN(c4ccc5oc(C(N)=O)cc5c4)CC3)c2c1 [VILAZODONE]

experiment: as §1, with “Z-005” for “Z-006”, “to” for “to mouse gut”, “ERS12561805” for “ERS12561806”; settings: 2 µM

Bacterial Biotransformation	Compound
Compound NOT metabolized	CC1=C(CC(=O)O)c2cc(F)ccc2/C1=C\c1ccc([S+](C)[O-])cc1 (stereo not given)
Compound NOT metabolized	N=C(N)NC(=O)Cc1c(Cl)cccc1Cl [GUANFACINE]
Compound metabolized	O=C(O)c1cc(/N=N/c2ccc(S(=O)(=O)Nc3ccccn3)cc2)ccc1O [SULFASALAZINE]
Compound metabolized	N#Cc1ccc2[nH]cc(CCCCN3CCN(c4ccc5oc(C(N)=O)cc5c4)CC3)c2c1 [VILAZODONE]

experiment: as §1, with “WLS-310” for “Z-006”, “human” for “mouse”, “ERS12561785” for “ERS12561806”; settings: 2 µM

Bacterial Biotransformation	Compound
Compound metabolized	CC1=C(CC(=O)O)c2cc(F)ccc2/C1=C\c1ccc([S+](C)[O-])cc1 (stereo not given)
Compound NOT metabolized	N=C(N)NC(=O)Cc1c(Cl)cccc1Cl [GUANFACINE]
Compound metabolized	O=C(O)c1cc(/N=N/c2ccc(S(=O)(=O)Nc3ccccn3)cc2)ccc1O [SULFASALAZINE]
Compound metabolized	N#Cc1ccc2[nH]cc(CCCCN3CCN(c4ccc5oc(C(N)=O)cc5c4)CC3)c2c1 [VILAZODONE]

experiment: as §1, with “WLS-086” for “Z-006”, “human” for “mouse”, “ERS12561752” for “ERS12561806”; settings: 2 µM

Bacterial Biotransformation	Compound
Compound metabolized	CC1=C(CC(=O)O)c2cc(F)ccc2/C1=C\c1ccc([S+](C)[O-])cc1 (stereo not given)
Compound NOT metabolized	N=C(N)NC(=O)Cc1c(Cl)cccc1Cl [GUANFACINE]
Compound metabolized	O=C(O)c1cc(/N=N/c2ccc(S(=O)(=O)Nc3ccccn3)cc2)ccc1O [SULFASALAZINE]
Compound metabolized	N#Cc1ccc2[nH]cc(CCCCN3CCN(c4ccc5oc(C(N)=O)cc5c4)CC3)c2c1 [VILAZODONE]

settings: human gut metagenome, 24 h, 2 µM; remark: another data set of the same source

Bacterial Biotransformation	Compound
Compound metabolized	CC1=C(CC(=O)O)c2cc(F)ccc2/C1=C\c1ccc([S+](C)[O-])cc1 (stereo not given)
Compound NOT metabolized	N=C(N)NC(=O)Cc1c(Cl)cccc1Cl [GUANFACINE]
Compound metabolized	O=C(O)c1cc(/N=N/c2ccc(S(=O)(=O)Nc3ccccn3)cc2)ccc1O [SULFASALAZINE]

settings: human gut metagenome, 24 h, 2 µM; remark: another data set of the same source

Bacterial Biotransformation	Compound
Compound metabolized	CC1=C(CC(=O)O)c2cc(F)ccc2/C1=C\c1ccc([S+](C)[O-])cc1 (stereo not given)
Compound NOT metabolized	N=C(N)NC(=O)Cc1c(Cl)cccc1Cl [GUANFACINE]
Compound metabolized	O=C(O)c1cc(/N=N/c2ccc(S(=O)(=O)Nc3ccccn3)cc2)ccc1O [SULFASALAZINE]
Compound metabolized	N#Cc1ccc2[nH]cc(CCCCN3CCN(c4ccc5oc(C(N)=O)cc5c4)CC3)c2c1 [VILAZODONE]

experiment: as §1, with “Z-004” for “Z-006”, “to” for “to mouse gut”, “ERS12561804” for “ERS12561806”; settings: 2 µM

Bacterial Biotransformation	Compound
Compound NOT metabolized	CC1=C(CC(=O)O)c2cc(F)ccc2/C1=C\c1ccc([S+](C)[O-])cc1 (stereo not given)
Compound NOT metabolized	N=C(N)NC(=O)Cc1c(Cl)cccc1Cl [GUANFACINE]
Compound metabolized	O=C(O)c1cc(/N=N/c2ccc(S(=O)(=O)Nc3ccccn3)cc2)ccc1O [SULFASALAZINE]
Compound NOT metabolized	N#Cc1ccc2[nH]cc(CCCCN3CCN(c4ccc5oc(C(N)=O)cc5c4)CC3)c2c1 [VILAZODONE]

experiment: as §1, with “WLS-370” for “Z-006”, “human” for “mouse”, “ERS12561793” for “ERS12561806”; settings: 2 µM

Bacterial Biotransformation	Compound
Compound metabolized	CC1=C(CC(=O)O)c2cc(F)ccc2/C1=C\c1ccc([S+](C)[O-])cc1 (stereo not given)
Compound NOT metabolized	N=C(N)NC(=O)Cc1c(Cl)cccc1Cl [GUANFACINE]
Compound metabolized	O=C(O)c1cc(/N=N/c2ccc(S(=O)(=O)Nc3ccccn3)cc2)ccc1O [SULFASALAZINE]
Compound metabolized	N#Cc1ccc2[nH]cc(CCCCN3CCN(c4ccc5oc(C(N)=O)cc5c4)CC3)c2c1 [VILAZODONE]

experiment: as §1, with “Z-014” for “Z-006”, “rat” for “mouse”, “ERS12561814” for “ERS12561806”; settings: 2 µM

Bacterial Biotransformation	Compound
Compound NOT metabolized	CC1=C(CC(=O)O)c2cc(F)ccc2/C1=C\c1ccc([S+](C)[O-])cc1 (stereo not given)
Compound NOT metabolized	N=C(N)NC(=O)Cc1c(Cl)cccc1Cl [GUANFACINE]
Compound metabolized	O=C(O)c1cc(/N=N/c2ccc(S(=O)(=O)Nc3ccccn3)cc2)ccc1O [SULFASALAZINE]
Compound NOT metabolized	N#Cc1ccc2[nH]cc(CCCCN3CCN(c4ccc5oc(C(N)=O)cc5c4)CC3)c2c1 [VILAZODONE]

settings: human gut metagenome, 24 h, 2 µM; remark: another data set of the same source

Bacterial Biotransformation	Compound
Compound metabolized	CC1=C(CC(=O)O)c2cc(F)ccc2/C1=C\c1ccc([S+](C)[O-])cc1 (stereo not given)
Compound NOT metabolized	N=C(N)NC(=O)Cc1c(Cl)cccc1Cl [GUANFACINE]
Compound metabolized	O=C(O)c1cc(/N=N/c2ccc(S(=O)(=O)Nc3ccccn3)cc2)ccc1O [SULFASALAZINE]
Compound metabolized	N#Cc1ccc2[nH]cc(CCCCN3CCN(c4ccc5oc(C(N)=O)cc5c4)CC3)c2c1 [VILAZODONE]

experiment: as §1, with “Z-019” for “Z-006”, “rat” for “mouse”, “ERS12561818” for “ERS12561806”; settings: 2 µM

Bacterial Biotransformation	Compound
Compound NOT metabolized	CC1=C(CC(=O)O)c2cc(F)ccc2/C1=C\c1ccc([S+](C)[O-])cc1 (stereo not given)
Compound NOT metabolized	N=C(N)NC(=O)Cc1c(Cl)cccc1Cl [GUANFACINE]
Compound NOT metabolized	N#Cc1ccc2[nH]cc(CCCCN3CCN(c4ccc5oc(C(N)=O)cc5c4)CC3)c2c1 [VILAZODONE]

experiment: as §1, with “WLS-010” for “Z-006”, “human” for “mouse”, “ERS12561743” for “ERS12561806”; settings: 2 µM

Bacterial Biotransformation	Compound
Compound metabolized	CC1=C(CC(=O)O)c2cc(F)ccc2/C1=C\c1ccc([S+](C)[O-])cc1 (stereo not given)
Compound NOT metabolized	N=C(N)NC(=O)Cc1c(Cl)cccc1Cl [GUANFACINE]
Compound metabolized	O=C(O)c1cc(/N=N/c2ccc(S(=O)(=O)Nc3ccccn3)cc2)ccc1O [SULFASALAZINE]
Compound metabolized	N#Cc1ccc2[nH]cc(CCCCN3CCN(c4ccc5oc(C(N)=O)cc5c4)CC3)c2c1 [VILAZODONE]

settings: human gut metagenome, 24 h, 2 µM; remark: another data set of the same source

Bacterial Biotransformation	Compound
Compound metabolized	CC1=C(CC(=O)O)c2cc(F)ccc2/C1=C\c1ccc([S+](C)[O-])cc1 (stereo not given)
Compound NOT metabolized	N=C(N)NC(=O)Cc1c(Cl)cccc1Cl [GUANFACINE]
Compound metabolized	O=C(O)c1cc(/N=N/c2ccc(S(=O)(=O)Nc3ccccn3)cc2)ccc1O [SULFASALAZINE]
Compound metabolized	N#Cc1ccc2[nH]cc(CCCCN3CCN(c4ccc5oc(C(N)=O)cc5c4)CC3)c2c1 [VILAZODONE]

experiment: as §1, with “Z-027” for “Z-006”, “to” for “to mouse gut”, “ERS12561826” for “ERS12561806”; settings: 2 µM

Bacterial Biotransformation	Compound
Compound NOT metabolized	CC1=C(CC(=O)O)c2cc(F)ccc2/C1=C\c1ccc([S+](C)[O-])cc1 (stereo not given)
Compound NOT metabolized	N=C(N)NC(=O)Cc1c(Cl)cccc1Cl [GUANFACINE]
Compound NOT metabolized	O=C(O)c1cc(/N=N/c2ccc(S(=O)(=O)Nc3ccccn3)cc2)ccc1O [SULFASALAZINE]
Compound NOT metabolized	N#Cc1ccc2[nH]cc(CCCCN3CCN(c4ccc5oc(C(N)=O)cc5c4)CC3)c2c1 [VILAZODONE]

experiment: as §1, with “WLS-007” for “Z-006”, “human” for “mouse”, “ERS12561742” for “ERS12561806”; settings: 2 µM

Bacterial Biotransformation	Compound
Compound metabolized	CC1=C(CC(=O)O)c2cc(F)ccc2/C1=C\c1ccc([S+](C)[O-])cc1 (stereo not given)
Compound NOT metabolized	N=C(N)NC(=O)Cc1c(Cl)cccc1Cl [GUANFACINE]
Compound metabolized	O=C(O)c1cc(/N=N/c2ccc(S(=O)(=O)Nc3ccccn3)cc2)ccc1O [SULFASALAZINE]
Compound metabolized	N#Cc1ccc2[nH]cc(CCCCN3CCN(c4ccc5oc(C(N)=O)cc5c4)CC3)c2c1 [VILAZODONE]

settings: human gut metagenome, 24 h, 2 µM; remark: another data set of the same source

Bacterial Biotransformation	Compound
Compound NOT metabolized	N=C(N)NC(=O)Cc1c(Cl)cccc1Cl [GUANFACINE]
Compound metabolized	O=C(O)c1cc(/N=N/c2ccc(S(=O)(=O)Nc3ccccn3)cc2)ccc1O [SULFASALAZINE]
Compound metabolized	N#Cc1ccc2[nH]cc(CCCCN3CCN(c4ccc5oc(C(N)=O)cc5c4)CC3)c2c1 [VILAZODONE]
